# Laboratory results as given in US5795907A, “Gastin and CCK receptor ligands” (James Black Foundation Limited, priority 1994, dated 1998).
# Columns and labels:
# CCKB receptor = biological target: T1, CCKB receptor (Mus musculus, UniProt P56481); assay: CCKB receptor radioligand binding assay in mouse cortical membranes ([125I]-CCK8S); conditions: [125I]-CCK8S 200 pM, 150 min at 21±3°; for Ki: read-out: CCKB pKi (converted)
# T1 construct: The cortex was dissected, weighed and homogenised in 40ml ice-cold buffer; tissue Charles River (supplier of the CD1 mice); host or cells: cerebral cortex membranes of male CD1 mice
# T1 sequence (P56481 1-453): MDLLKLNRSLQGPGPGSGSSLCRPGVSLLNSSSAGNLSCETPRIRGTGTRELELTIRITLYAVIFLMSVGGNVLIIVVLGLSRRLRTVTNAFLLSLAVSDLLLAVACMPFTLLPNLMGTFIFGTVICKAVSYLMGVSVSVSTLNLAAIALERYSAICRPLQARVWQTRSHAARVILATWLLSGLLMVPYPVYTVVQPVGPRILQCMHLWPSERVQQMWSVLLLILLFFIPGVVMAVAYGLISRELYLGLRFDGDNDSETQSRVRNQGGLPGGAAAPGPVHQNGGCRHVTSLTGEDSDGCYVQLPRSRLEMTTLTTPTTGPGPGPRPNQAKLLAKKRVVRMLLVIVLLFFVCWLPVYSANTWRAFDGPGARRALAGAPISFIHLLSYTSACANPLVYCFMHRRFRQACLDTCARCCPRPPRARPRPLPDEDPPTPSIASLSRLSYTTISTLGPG
# Procedure, shortened: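 This was competition binding with tracer [125I]-CCK8S (200 pM solution added), run for 150 min at 21±3° on male CD1 mouse cortex membranes in pH 7.2 HEPES buffer with bacitracin. Filtration then gamma counting gave bound radioactivity. L-365,260 set the non-specific level.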
# gastrin = biological target: T2, gastrin (Rattus norvegicus, UniProt P30553); assay: gastrin antagonist activity in an immature rat stomach assay (pentagastrin-stimulated acid secretion); conditions: cumulative pentagastrin dose-response curves after 60 min with drug; for Kb: read-out: Gastrin pKB (converted)
# T2 construct: The stomach was lowered into a jacketed organ bath containing 40 ml of buffered solution; from tissue; host or cells: isolated perfused whole stomach of immature rats (ca. 21 days old)
# T2 sequence (P30553 1-452): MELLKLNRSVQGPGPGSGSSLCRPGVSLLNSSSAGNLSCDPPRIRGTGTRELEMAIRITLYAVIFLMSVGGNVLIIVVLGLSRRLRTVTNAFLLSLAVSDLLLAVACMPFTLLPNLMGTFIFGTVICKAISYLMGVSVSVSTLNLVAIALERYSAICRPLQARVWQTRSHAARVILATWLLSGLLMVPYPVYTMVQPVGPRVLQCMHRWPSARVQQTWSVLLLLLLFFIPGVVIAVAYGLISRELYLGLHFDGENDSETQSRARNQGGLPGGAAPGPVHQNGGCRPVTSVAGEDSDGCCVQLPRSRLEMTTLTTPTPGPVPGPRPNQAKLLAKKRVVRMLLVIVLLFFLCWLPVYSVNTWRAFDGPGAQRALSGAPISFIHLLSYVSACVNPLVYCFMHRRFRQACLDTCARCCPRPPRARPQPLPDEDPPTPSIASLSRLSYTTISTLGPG
# Procedure, shortened: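 Isolated lumen-perfused immature rat stomach (33-50 g, ca. 21 days) in 37° organ bath with 3×10^-8 M 5-methylfurmethide; acid secretion read by pH electrode in perfusate. Compound added to serosal bath after 120 min stabilisation; cumulative pentagastrin dose-response curves begun 60 min later and analysed by the Black et al. method.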
# CCKA = biological target: T3, CCKA (Cavia porcellus, UniProt Q63931); assay: CCKA radioligand binding assay in guinea-pig pancreas membranes ([125I]-CCK8(S)); conditions: PD134,308 present, 150 minutes at 21±3°; for Ki: read-out: CCKA pKi (converted)
# T3 construct: The pancreatata were homogenised in 40 ml ice-cold HEPES buffer using a polytron; from tissue; host or cells: pancreas membranes of male Dunkin Hartley guinea-pigs
# T3 sequence (Q63931 1-430): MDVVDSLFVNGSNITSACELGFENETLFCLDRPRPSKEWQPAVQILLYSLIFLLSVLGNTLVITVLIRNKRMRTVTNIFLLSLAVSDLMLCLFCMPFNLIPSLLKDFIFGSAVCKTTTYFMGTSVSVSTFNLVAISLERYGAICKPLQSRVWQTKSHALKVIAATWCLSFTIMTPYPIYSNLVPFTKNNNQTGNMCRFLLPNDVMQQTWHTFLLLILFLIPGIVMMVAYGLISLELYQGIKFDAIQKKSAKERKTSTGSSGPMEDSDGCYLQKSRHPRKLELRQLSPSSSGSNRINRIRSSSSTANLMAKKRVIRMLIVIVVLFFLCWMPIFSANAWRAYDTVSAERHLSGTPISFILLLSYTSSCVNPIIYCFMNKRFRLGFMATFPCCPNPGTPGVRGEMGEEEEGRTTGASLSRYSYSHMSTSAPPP
# Procedure, shortened: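 Competition for [125I]-CCK8(S) (added as […] solution) ran for 150 min at 21±3° in HEPES pH 7.2. Membranes came from male guinea-pig pancreas at 1 mg/ml original wet weight, with 0.375 μM PD134,308 in the suspension. Filter-bound counts were gamma-counted; 100 nM L-364,718 (added solution) defined non-specific binding.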
Molecule,Ki (CCKB receptor) [nM],Kb (gastrin) [nM],Ki (CCKA) [nM],CCKB pKi (CCKB receptor),Gastrin pKB (gastrin),CCKA pKi (CCKA)
"O=C(NO)c1cc(NC(=O)[C@H](Cc2ccccc2)NC(=O)c2cc3cc[nH]c3cc2C(=O)NCC23CC4CC(CC(C4)C2)C3)cc(C(=O)NO)c1 [Example 34, 5-(1S-(3,5-dihydroxyaminocarbonylphenylaminocarbonyl)-2-phenylethylaminocarbonyl)-6-(1-adamantanemethylaminocarbonyl)-indole]",7.94,2,794,–,–,–
"CC(=O)n1ccc2cc(C(=O)N[C@@H](Cc3ccccc3)C(=O)Nc3cc(C(=O)O)cc(C(=O)O)c3)c(C(=O)NCC34CC5CC(CC(C5)C3)C4)cc21 [Example 44, 5-(1S-(3,5-dicarboxyphenylaminocarbonyl)-2-phenylethylaminocarbonyl)-6-(1-adamantanemethylaminocarbonyl)-N-acetyl-indole]",–,–,–,8.7,8.7,5.6
"C[C@@H](NC(=O)c1cc2ccccc2cc1C(=O)NCC12CC3CC(CC(C3)C1)C2)C(=O)O [Example 5, 2-(1R-carboxyethylamino-carbonyl)-3-(1-adamantanemethylaminocarbonyl)-naphthalene]",1000,158,6310,–,–,–
"5-(1S-(3,5-dicarboxyphenylaminocarbonyl)-2-(3-fluorophenyl)ethylaminocarbonyl)-6-(1-adamantanemethylaminocarbonyl)-indole and regioisomer with substituents at positions 5 and 6 reversed [Example 28]",–,–,–,8.5,9.7,5.4
"CN(O)C(=O)c1cc(NC(=O)[C@H](Cc2ccccc2)NC(=O)c2cc3cc[nH]c3cc2C(=O)NCC23CC4CC(CC(C4)C2)C3)cc(C(=O)N(C)O)c1 [Example 103, 5-(1S-(3,5-dihydroxy-N-(methyl)aminocarbonylphenylaminocarbonyl)-2-phenylethylaminocarbonyl)-6-(1-adamantanemethylaminocarbonyl)-indole]",–,–,–,7.0,7.8,5.2
"5-(1S-(3,5-dicarboxyphenylaminocarbonyl)-2-(2-fluorophenyl)ethylaminocarbonyl)-6-(1-adamantanemethylaminocarbonyl)-indole and regioisomer with substituents at positions 5 and 6 reversed [Example 27]",–,–,–,8.5,9.2,5.6
"O=C(NCC12CC3CC(CC(C3)C1)C2)c1cc2nc[nH]c2cc1C(=O)N[C@@H](Cc1ccccc1)C(=O)NCc1ccc(F)cc1 [Example 67, 5-(1S-(4-fluorophenylmethylaminocarbonyl)-2-phenylethylaminocarbonyl)-6-(1-adamantanemethylaminocarbonyl)-benzimidazole]",501,158,2000,–,–,–
"COC(=O)c1cc(NC(=O)[C@H](Cc2ccccc2)NC(=O)c2cc3ccoc3cc2C(=O)NCC23CC4CC(CC(C4)C2)C3)cc(C(=O)OC)c1 [Example 124, 5-(1S-(3,5-dimethoxycarbonylphenylaminocarbonyl)-2-phenylethylaminocarbonyl)-6-(1-adamantanemethylaminocarbonyl)-benzofuran]",–,–,–,6.5,6.8,5.7
"O=C(O)c1cc(NC(=O)[C@H](Cc2ccccc2)NC(=O)c2cc3[nH]ccc3cc2C(=O)NCC23CC4CC(CC(C4)C2)C3)cc(C(=O)O)c1 [Example 26, 6-(1S-(3,5-dicarboxyphenylaminocarbonyl)-2-phenylethylaminocarbonyl)-5-(1-adamantanemethylaminocarbonyl)-indole]",12.6,0.501,3160,–,–,–
"COC(=O)c1cc(NC(=O)[C@H](Cc2ccccc2)NC(=O)c2cc3[nH]cnc3cc2C(=O)NCC23CC4CC(CC(C4)C2)C3)cc(C(=O)OC)c1 [Example 81, 5-(1S-(3,5-dimethoxycarbonylphenylaminocarbonyl)-2-phenylethylaminocarbonyl)-6-(1-adamantane-methylaminocarbonyl)-benzimidazole]",794,126,3160,–,–,–
"O=C(O)CNC(=O)[C@H]1CCCN1C(=O)c1cc2[nH]cnc2cc1C(=O)NCC12CC3CC(CC(C3)C1)C2 [Example 76, 5-(2R-carboxymethylaminocarbonylpyrrolidino-carbonyl)-6-(1-adamantanemethylaminocarbonyl)-benzimidazole]",631,126,> 10000,–,–,–
"CN(C(=O)[C@H](Cc1ccccc1)NC(=O)c1cc2[nH]cnc2cc1C(=O)NCC12CC3CC(CC(C3)C1)C2)c1cc(C(=O)O)cc(C(=O)O)c1 [Example 73, 5-(1S-(3,5-dicarboxyphenyl-N-(methyl)amino-carbonyl)-2-phenylethylaminocarbonyl)-6-(1-adamantane-methylaminocarbonyl)-benzimidazole]",–,63.1,6310,6.3,–,–
"Cc1ccc(C(=O)O)cc1NC(=O)[C@H](Cc1ccccc1)NC(=O)c1cc2[nH]cnc2cc1C(=O)NCC12CC3CC(CC(C3)C1)C2 [Example 82, 5-(1S-(2-methyl-5-carboxyphenylaminocarbonyl)-2-phenylethylaminocarbonyl)-6-(1-adamantanemethylaminocarbonyl)-benzimidazole]",100,126,2000,–,–,–
"O=C(O)c1cccc(NC(=O)[C@H](Cc2ccccc2)NC(=O)c2cc3cc[nH]c3cc2C(=O)NCC23CC4CC(CC(C4)C2)C3)c1 [Example 90, 5-(1S-(3-carboxyphenylaminocarbonyl)-2-phenylethylaminocarbonyl)-6-(1-adamantanemethylaminocarbonyl)-indole]",–,–,–,8.2,8.0,5.3
"O=C(O)c1cc(NC(=O)[C@H](Cc2ccccc2)NC(=O)c2cc3[nH]cnc3cc2C(=O)NCC23CC4CC(CC(C4)C2)C3)ccc1F [Example 75, 5-(1S-(3-carboxy-4-fluoro-phenylaminocarbonyl)-2-phenylethylaminocarbonyl)-6-(1-adamantanemethylaminocarbonyl)-benzimidazole]",–,–,–,7.8,7.7,6.1
"O=C(NCC12CC3CC(CC(C3)C1)C2)c1cc2nc[nH]c2cc1C(=O)N[C@@H](Cc1ccccc1)C(=O)Nc1cccc(S(=O)(=O)NC(=O)C(F)(F)F)c1 [Example 128, 5-(1S-(3-trifluoroacetylaminosulphonylphenylaminocarbonyl)-2-phenylethylaminocarbonyl)-6-(1-adamantanemethylaminocarbonyl)-benzimidazole]",6.31,2.51,2000,–,–,–
